From patent publication US20070160975A1, “Method for the Identification of Drugs to Treat Stroke at Delayed Timepoints” (UNIVERSITY OF SOUTH FLORIDA, priority 2006, published 2007)

Tests used:
[1] = tested on: primary microglial cultures; test: LPS stimulated nitric oxide release, Griess reaction; type: cell-based, rat; details: nitric oxide by Griess reaction
Method: (§1) FIG. 2 is a graph illustrating that sigma receptor activation reduces LPS-induced cytotoxin production. […] Nitric oxide levels were quantified using the Griess reaction while TNF-α levels were measured by ELISA.
(§2) To gauge anti-inflammatory action, primary microglial cultures will be treated with lipopolysaccharide, which elicits a robust inflammatory response from these cells. Compounds that are effective agonist stroke at delayed timepoints are able to block the LPS-induced inflammatory response in microglial cells. The inflammatory cytokine, TNF-α and nitric oxide are two inflammatory agents to be measured to determine anti-inflammatory action of the compound. […] Using these two in vitro screening methods, other compounds that will be useful in treating stroke will be discovered.
Nitric Oxide Determination: The supematant from treated primary rat rnicrogiia cultures will be harvested, placed in 1.5 ml micro-centrifuge tubes and then centrifuged in a bench top micro-centrifuge at 13,000×g for 1 minute. The supernatant will be withdrawn and placed in a clean, labeled micro-centrifuge tube. Standards (between 100 μM and 1 μM) will be prepared by diluting stock 1 mM Sodium Nitrite, contained in the kit, with DMEM in 1.5 ml micro centrifuge tubes. […] The absorbance at 458 nm will be measured in a spectrophotometer capable of reading 96 well plates.

[2] = tested on: primary microglial cultures; test: LPS stimulated TNF-α release, ELISA; type: cell-based, rat; details: TNF-α by ELISA
Method: as §1, §2
TNF-α ELISA-Capture antibody (#MAB510 anti-rat antibody TNF R&D biosysterns) will be diluted with 2 μg/ml in coating buffer and incubated at 4° C. overnight. The capture antibody will then coat a high protein binding 96 well plate. Each well of the 96 well plate will be aspirated and washed three times with wash buffer. […] During incubation, direct light will be avoided 50 μl of 1 M H2SO4 will be added to each well and optical density will be determined within 30 minutes using a microplate reader set at 450 nm.

SMILES: Cc1ccccc1N=C(N)Nc1ccccc1C [DTG]
- LPS stimulated nitric oxide release [1]: dose dependently reduced
- LPS stimulated TNF-α release [2]: dose dependently reduced
